Reference: patent US8952249B2, “1,4-fullerene addends in photovoltaic cells” (The Regents of the University of California, priority 2010, dated 2015)

Assays:
[1] = Cyclic voltammetry: reduction potentials and energy of the LUMO; assay type: physicochemical; details: 1,2-dichlorobenzene, Bu4NClO4 (0.1 M), Pt wire counter electrode, 50 mV/s scan rate
From the text: The synthesis of fullerenol was previously reported.^6 From fullerenol, we herein report on the syntheses of a set of derivatives by arylation as described in FIG. 1. In a typical reaction, fullerenol is reacted with a specific substrate (a substituted aryl) used as the solvent in the presence of p-toluene sulfonic acid (TsOH) as the catalyst. Following this procedure we synthesized: PEHOB (FIG. 2) (C60 functionalized with a phenyl group on C1 and an ethylhexyloxybenzene group on C4), PCVM (FIG. 3) (Phenyl on C1 and phenylvaleric acid methyl ester on C4), PTHOB (FIG. 4) (phenyl on C1 and trihexyloxyphenyl on C4), PFOH (FIG. 5) (phenyl on C1 and hydroxyl on C4); PFTFP (FIG. 6) (p-trifluorophenyl on C1 and pentafluorophenyl on C4) and ANP (FIG. 7) (phenyl on C1 and aniline on C4). 1H NMR, 13C NMR, 19F NMR and field desorption (FD) mass spectroscopy confirmed the identity of the products. The adducts were further characterized by cyclic voltammetry (CV) and UV-vis spectroscopy. […] From the first reduction potential calculated by CV we determined the energy of the LUMO. An estimated value of the HOMO was inferred from the onset of the UV-vis spectra. In order to modify the property of the derivatives, we appended (i) long alkyl chains to increase solubility and (ii) electron withdrawing or (iii) electron donating groups to stabilize or destabilize the energy of the LUMO respectively. Due to the spherical shape of C60, heteroatoms or functional groups appended on the fullerene can only affect the energy of the molecular orbitals by induction. Therefore, an electron donating group directly bound to C60 such a methoxy will […] the energy of the LUMO because of the higher electronegativity of the oxygen. […] These values are in agreement with previous reports.^8, 9 Table 1 (see below) summarizes the electrochemical data calculated for all the derivatives. […]

[2] = parameters: unit not given here; details: PCBM analogues described by Hummelen et al.; cited from earlier work

Question: For `COC(=O)CCCC1(c2ccccc2)C23c4c5c6c7c8c9c(c%10c%11c2c2c%12c4c4c%13c5c5c7c7c8c8c%14c9c%10c9c%10c%11c2c2c%11c%12c4c4c%12c%13c5c5c7c7c8c8c%14c9c9c%10c2c2c%11c4c4c%12c5c7c5c8c9c2c45)C613` (stereo not shown) [PCBM, [6,6]-phenyl-C61-butyric acid methyl ester], which E1red [1] is on record?
Answer: −1.056 V vs Fc/Fc+

Question: What about the E2red [1] of the same compound?
Answer: −1.471 V vs Fc/Fc+

Question: And the E3red [1]?
Answer: −1.957 V vs Fc/Fc+

Question: And the redox potential [2]?
Answer: −1.08
